Measured values taken from patent US20230077362A1 (CORTEVA AGRISCIENCE LLC, priority 2019, published 2023).
Like-named read-outs stand apart in the source and are kept apart here.

Key:
[1] = test system: Beet Armyworm (Spodoptera exigua) ("BAW"), second instar larvae; assay: Bioassay on beet armyworm (BAW), 128-well diet tray assay; format: in vivo; conditions: for BAW rating (% control or mortality class) / BAW rating: Table ABC, species BAW; for BAW rating (% control or mortality class): 128-well diet tray assay, second instar larvae; for pest or weed control at 50 µg/cm2: Spodoptera exigua; for BAW rating: C = not tested, D = no activity noticed
How it was run: (§1)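 Read-out: percent larval mortality per well, averaged over 8 wells. Incubation 25° C., 14:10 L:D photoperiod, 5–7 days, trays sealed with clear adhesive cover.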

[2] = test system: Cabbage Looper (Trichoplusia ni) ("CL"), second instar larvae; assay: Bioassay on cabbage looper (CL), 128-well diet tray assay; format: in vivo; conditions: for mortality at 50 µg/cm2 / pest or weed control at 50 µg/cm2: Trichoplusia ni; for mortality at 50 µg/cm2 / CL rating: Table ABC, species CL; for mortality at 50 µg/cm2: 128-well diet tray assay, second instar larvae, read-out: CL rating (% control or mortality class); for CL rating: C = not tested, D = no activity noticed
How it was run: as §1

[3] = read-out: BAW (Biological Results, rating)
[4] = read-out: CL (Biological Results, rating)

In the case of `Cc1ccc(COCCF)c(N2C(=O)CS/C2=N\C(=O)Nc2ccc(-c3ncn(-c4ccc(OC(F)(F)C(F)(F)F)cc4)n3)cc2C)c1` [Compound J801, (Z)-1-(3-(2-((2-Fluoroethoxy)methyl)-5-methylphenyl)-4-oxothiazolidin-2-ylidene)-3-(2-methyl-4-(1-(4-(perfluoroethoxy)phenyl)-1H-1,2,4-triazol-3-yl)phenyl)urea], the “BAW rating (% control or mortality class)” value [1] is reported as “A (50-100)” and the mortality at 50 µg/cm2 [2] is reported as 50 to 100%.

For `COc1ccc(C(C)C)c(N2C(=O)CS/C2=N\C(=O)Nc2ccc(-c3ncn(-c4ccc(OC(F)(F)F)cc4)n3)cc2C(C)C)c1` [Compound J100, (Z)-1-(2-Isopropyl-4-(1-(4-(trifluoromethoxy)phenyl)-1H-1,2,4-triazol-3-yl)phenyl)-3-(3-(2-isopropyl-5-methoxyphenyl)-4-oxothiazolidin-2-ylidene)urea], the pest or weed control at 50 µg/cm2 [1, 3] was 50 to 100% and the pest or weed control at 50 µg/cm2 [2, 4] was 50 to 100%.

With `CCCc1ccc(OC)cc1N1C(=O)CS/C1=N\C(=O)Nc1ccc(-c2ncn(-c3ccc(OC(F)(F)F)cc3)n2)cc1F` [Compound J43, (Z)-1-(2-Fluoro-4-(1-(4-(trifluoromethoxy)phenyl)-1H-1,2,4-triazol-3-yl)phenyl)-3-(3-(5-methoxy-2-propylphenyl)-4-oxothiazolidin-2-ylidene)urea] the pest or weed control at 50 µg/cm2 [1, 3] was 50 to 100% and the pest or weed control at 50 µg/cm2 [2, 4] was 50 to 100%.

For `Cc1ccc(COCC(F)(F)F)c(N2C(=O)CS/C2=N\C(=O)Nc2ccc(-c3ccn(-c4ccc(C(F)(F)F)nn4)n3)cc2F)c1` [Compound J390], the BAW rating [1] was “A (50-100)” and the CL rating [2] was “A (50-100)”.

With `Cc1ccc(COCC(F)(F)F)c(N2C(=O)CS/C2=N\C(=O)Nc2ccc(-c3ncn(-c4cccc(C(F)(F)F)c4)n3)cc2F)c1` [Compound J710] the BAW rating [1] was “A (50-100)” and the CL rating [2] was “A (50-100)”.

For `Cc1ccc(COCC(F)(F)F)c(N2C(=O)CS/C2=N\C(=O)Nc2ccc(-c3ncn(-c4cccc(C(F)(F)F)c4)n3)cc2C)c1` [Compound J727], the BAW rating [1] was “A (50-100)” and the CL rating [2] was “A (50-100)”.

`Cc1ccc(COCc2ccccc2)c(N2C(=O)CS/C2=N\C(=O)Nc2ccc(-c3ncn(-c4ccc(OC(F)(F)F)cc4)n3)cc2F)c1` [Compound J571, (Z)-1-(3-(2-((Benzyloxy)methyl)-5-methylphenyl)-4-oxothiazolidin-2-ylidene)-3-(2-fluoro-4-(1-(4-(trifluoromethoxy)phenyl)-1H-1,2,4-triazol-3-yl)phenyl)urea] gave a pest or weed control at 50 µg/cm2 ([1]; read-out: BAW rating) of 50 to 100% and a pest or weed control at 50 µg/cm2 ([2]; read-out: CL rating) of 50 to 100%.

`Cc1ccc(OCCC(F)(F)F)c(N2C(=O)CS/C2=N\C(=O)Nc2ccc(-c3cn(-c4ccc(OC(F)(F)F)cc4)cn3)cc2F)c1` [Compound J476, (Z)-1-(2-Fluoro-4-(1-(4-(trifluoromethoxy)phenyl)-1H-imidazol-4-yl)phenyl)-3-(3-(5-methyl-2-(3,3,3-trifluoropropoxy)phenyl)-4-oxothiazolidin-2-ylidene)urea] was tested, and the pest or weed control at 50 µg/cm2 ([1]; read-out: BAW rating) was 50 to 100% and the pest or weed control at 50 µg/cm2 ([2]; read-out: CL rating) was 50 to 100%.

`COC(C)c1ccc(C#N)cc1N1C(=O)CS/C1=N\C(=O)Nc1ccc(-c2cn(-c3ccc(S(F)(F)(F)(F)F)cc3)cn2)cc1F` (centres unmarked) [Compound J606, (Z)-1-(3-(5-Cyano-2-(1-methoxyethyl)phenyl)-4-oxothiazolidin-2-ylidene)-3-(2-fluoro-4-(1-(4-(pentafluoro-λ^6-sulfaneyl)phenyl)-1H-imidazol-4-yl)phenyl)urea] was tested, and the pest or weed control at 50 µg/cm2 ([1]; read-out: BAW rating) was 50 to 100% and the pest or weed control at 50 µg/cm2 ([2]; read-out: CL rating) was 50 to 100%.

In the case of `Cc1ccc(COCC(C)(F)F)c(N2C(=O)CS/C2=N\C(=O)Nc2ccc(-c3ncn(-c4ccc(OC(F)(F)F)cc4)n3)cc2C)c1` [Compound J534], the BAW rating [1] is reported as “A (50-100)” and the CL rating [2] is reported as “A (50-100)”.

With `Cc1ccc(COCC(F)(F)F)c(N2C(=O)CS/C2=N\C(=O)Nc2ccc(-c3ncn(-c4ccc(C(F)(F)C(F)(F)F)cc4)n3)cc2F)c1` [Compound J793, (Z)-1-(2-Fluoro-4-(1-(4-(perfluoroethyl)phenyl)-1H-1,2,4-triazol-3-yl)phenyl)-3-(3-(5-methyl-2-((2,2,2-trifluoroethoxy)methyl)phenyl)-4-oxothiazolidin-2-ylidene)urea] the “BAW rating (% control or mortality class)” value [1] was “A (50-100)” and the mortality at 50 µg/cm2 [2] was 50 to 100%.

`Cc1ccc(OCCC(F)(F)F)c(N2C(=O)CS/C2=N\C(=O)Nc2ccc(-n3cnc(-c4ccc(OC(F)(F)F)cc4)n3)cc2Cl)c1` [Compound J737, (Z)-1-(2-Chloro-4-(3-(4-(trifluoromethoxy)phenyl)-1H-1,2,4-triazol-1-yl)phenyl)-3-(3-(5-methyl-2-(3,3,3-trifluoropropoxy)phenyl)-4-oxothiazolidin-2-ylidene)urea] showed a pest or weed control at 50 µg/cm2 ([1]; read-out: BAW rating) of 50 to 100% and a pest or weed control at 50 µg/cm2 ([2]; read-out: CL rating) of 50 to 100%.

In the case of `Cc1ccc(COCC(Cl)Cl)c(N2C(=O)CS/C2=N\C(=O)Nc2ccc(-c3ncn(-c4ccc(OC(F)(F)F)cc4)n3)cc2F)c1` [Compound J553], the BAW rating [1] is reported as “A (50-100)” and the CL rating [2] is reported as “A (50-100)”.

For `Cc1ccc(COCC(F)F)c(N2C(=O)CS/C2=N\C(=O)Nc2ccc(-c3ncn(-c4ccc(C(F)(F)F)cn4)n3)cc2F)c1` [Compound J400], the BAW rating [1] was “A (50-100)” and the CL rating [2] was “A (50-100)”.

`Cc1ccc(COCC(F)(F)F)c(N2C(=O)CS/C2=N\C(=O)Nc2ccc(-c3ncn(-c4ccc(SC(F)(F)F)cc4)n3)cc2)c1` [Compound J367, (Z)-1-(3-(5-Methyl-2-((2,2,2-trifluoroethoxy)methyl)phenyl)-4-oxothiazolidin-2-ylidene)-3-(4-(1-(4-((trifluoromethyl)thio)phenyl)-1H-1,2,4-triazol-3-yl)phenyl)urea] gave a pest or weed control at 50 µg/cm2 ([1]; read-out: BAW rating) of 50 to 100% and a pest or weed control at 50 µg/cm2 ([2]; read-out: CL rating) of 50 to 100%.

`CC(C)c1ccc(N(C)C)cc1N1C(=O)CS/C1=N\C(=O)Nc1ccc(-c2cn(-c3ccc(C(F)(F)F)cn3)cn2)cc1F` [Compound J481, (Z)-1-(3-(5-(Dimethylamino)-2-isopropylphenyl)-4-oxothiazolidin-2-ylidene)-3-(2-fluoro-4-(1-(5-(trifluoromethyl)pyridin-2-yl)-1H-imidazol-4-yl)phenyl)urea] showed a pest or weed control at 50 µg/cm2 ([1]; read-out: BAW rating) of 50 to 100% and a pest or weed control at 50 µg/cm2 ([2]; read-out: CL rating) of 50 to 100%.

`CCCc1ccc(N(C)C)cc1N1C(=O)CS/C1=N\C(=O)Nc1ccc(-c2ncn(-c3ccc(OC(F)(F)F)cn3)n2)cc1C(F)(F)F` [Compound J278, (Z)-1-(3-(5-(Dimethylamino)-2-propylphenyl)-4-oxothiazolidin-2-ylidene)-3-(4-(1-(5-(trifluoromethoxy)pyridin-2-yl)-1H-1,2,4-triazol-3-yl)-2-(trifluoromethyl)phenyl)urea] gave a pest or weed control at 50 µg/cm2 [1, 3] of 50 to 100% and a pest or weed control at 50 µg/cm2 [2, 4] of 50 to 100%.

Work on `Cc1ccc(COCC(F)(F)F)c(N2C(=O)CS/C2=N\C(=O)Nc2ccc(-c3ncn(-c4ccc(OCC(F)(F)F)nc4)n3)cc2F)c1` [Compound J765, (Z)-1-(2-Fluoro-4-(1-(6-(2,2,2-trifluoroethoxy)pyridin-3-yl)-1H-1,2,4-triazol-3-yl)phenyl)-3-(3-(5-methyl-2-((2,2,2-trifluoroethoxy)methyl)phenyl)-4-oxothiazolidin-2-ylidene)urea] yielded a pest or weed control at 50 µg/cm2 ([1]; read-out: BAW rating) of 50 to 100% and a pest or weed control at 50 µg/cm2 ([2]; read-out: CL rating) of 50 to 100%.

`COC(c1ccc(C)cc1N1C(=O)CS/C1=N\C(=O)Nc1ccc(-n2cnc(-c3ccc(C(F)(F)F)cc3)n2)cc1F)C(F)(F)F` (centres unmarked) [Compound J696, (Z)-1-(2-Fluoro-4-(3-(4-(trifluoromethyl)phenyl)-1H-1,2,4-triazol-1-yl)phenyl)-3-(3-(5-methyl-2-(2,2,2-trifluoro-1-methoxyethyl)phenyl)-4-oxothiazolidin-2-ylidene)urea] showed a pest or weed control at 50 µg/cm2 ([1]; read-out: BAW rating) of 50 to 100% and a pest or weed control at 50 µg/cm2 ([2]; read-out: CL rating) of 50 to 100%.

`Cc1ccc(C(C)C)c(N2C(=O)CS/C2=N\C(=O)Nc2ccc(-c3ncn(-c4ccc(C(F)(F)F)cc4)n3)cc2F)c1` [Compound J61, (Z)-1-(2-Fluoro-4-(1-(4-(trifluoromethyl)phenyl)-1H-1,2,4-triazol-3-yl)phenyl)-3-(3-(2-isopropyl-5-methylphenyl)-4-oxothiazolidin-2-ylidene)urea] was tested, and the pest or weed control at 50 µg/cm2 [1, 3] was 50 to 100% and the pest or weed control at 50 µg/cm2 [2, 4] was 50 to 100%.

For `Cc1ccc(OCCC(F)(F)F)c(N2C(=O)CS/C2=N\C(=O)Nc2ccc(-c3ncn(-c4ccc(OC(F)(F)F)cc4)n3)cc2C#N)c1` [Compound J243, (Z)-1-(2-Cyano-4-(1-(4-(trifluoromethoxy)phenyl)-1H-1,2,4-triazol-3-yl)phenyl)-3-(3-(5-methyl-2-(3,3,3-trifluoropropoxy)phenyl)-4-oxothiazolidin-2-ylidene)urea], the pest or weed control at 50 µg/cm2 [1, 3] was 50 to 100% and the pest or weed control at 50 µg/cm2 [2, 4] was 50 to 100%.

With `CCOCc1ccc(C)cc1N1C(=O)CS/C1=N\C(=O)Nc1ccc(-c2ncn(-c3cc(C(F)(F)F)cc(C(F)(F)F)c3)n2)cc1F` [Compound J761] the BAW rating [1] was “A (50-100)” and the CL rating [2] was “A (50-100)”.

With `CC(C)c1ccc(N(C)C)cc1N1C(=O)CS/C1=N\C(=O)Nc1ccc(-c2ncn(-c3ccc(S(F)(F)(F)(F)F)cc3)n2)cc1C#N` [Compound J585] the BAW rating [1] was “A (50-100)” and the CL rating [2] was “A (50-100)”.

Molecule `Cc1ccc(OCCC(F)(F)F)c(N2C(=O)CS/C2=N\C(=O)Nc2ccc(-c3ncn(-c4ccc(OC(F)(F)F)cn4)n3)cc2C(F)(F)F)c1` [Compound J273, (Z)-1-(3-(5-Methyl-2-(3,3,3-trifluoropropoxy)phenyl)-4-oxothiazolidin-2-ylidene)-3-(4-(1-(5-(trifluoromethoxy)pyridin-2-yl)-1H-1,2,4-triazol-3-yl)-2-(trifluoromethyl)phenyl)urea] has a pest or weed control at 50 µg/cm2 [1, 3] of 50 to 100% and a pest or weed control at 50 µg/cm2 [2, 4] of 50 to 100%.

Molecule `Cc1ccc(C(C)C)c(N2C(=O)CS/C2=N\C(=O)Nc2ccc(-c3ncn(-c4cccc(C(F)(F)F)c4)n3)cc2)c1` [Compound J323, (Z)-1-(3-(2-isopropyl-5-methylphenyl)-4-oxothiazolidin-2-ylidene)-3-(4-(1-(3-(trifluoromethyl)phenyl)-1H-1,2,4-triazol-3-yl)phenyl)urea] has a pest or weed control at 50 µg/cm2 [1, 3] of 50 to 100% and a pest or weed control at 50 µg/cm2 [2, 4] of 50 to 100%.
